Experimental data taken from ChEMBL document CHEMBL1135486, “Acylating agents as enzyme inhibitors and understanding their reactivity for drug design” (J Med Chem, 2002).

Experiment: Second-order rate constant (M-1 s-1) for the alkaline hydrolysis in water at 30 degrees C
Conditions: buffer

SMILES | kOH [M⁻¹ s⁻¹]
CC(C)[C@@H]1C(=O)N(S(C)(=O)=O)[C@@H]2CCN(C(=O)c3coc(CN4CCCC4)n3)[C@H]21 | 0.08
CC(C)[C@@H]1C(=O)N(S(C)(=O)=O)[C@@H]2CCN(C(=O)C3CN(CC(C)(C)C)C3)[C@H]21 | 0.0601
C=CC[C@H]1C(=O)OC2CCN(C(=O)OCc3ccccc3)[C@@H]21 (some centres undefined) | 0.252
CC(C)[C@@H]1C(=O)N(S(C)(=O)=O)[C@@H]2CCN(C(=O)/C=C/CN3CCCCC3)[C@H]21 | 0.07
CN1C(=O)CCC1=O | 0.825
CCC[C@H](NC(=O)N1C(=O)C(CC)(CC)C1Oc1ccc(C(=O)N2CCN(C)CC2)cc1)c1ccc2c(c1)OCO2 (some centres undefined) | 0.027
O=C1c2ccccc2S(=O)(=O)N1Cc1ccccc1 | 4.06
CC(=O)N(C)C(C)=O | 1.54
CC(=O)N(C)S(=O)(=O)Cc1ccccc1 | 1.3
O=C1CCCN1c1ccccc1 | 0.000013
O=C1CCCN1 [2-PYRROLIDONE] | 1.2
O=C1CCCO1 [BUTYROLACTONE] | 1.31
CCOC(C)=O [ETHYL ACETATE] | 0.164
CN1CCCC1=O [METHYLPYRROLIDONE] | 3.07
